Laboratory results published in ChEMBL document CHEMBL4715854, “Discovery of Roblitinib (FGF401) as a Reversible-Covalent Inhibitor of the Kinase Activity of Fibroblast Growth Factor Receptor 4” (J Med Chem, 2020).
Values belong to the compound of their own block, whether it stands above or below them.

Assays:
[1] = Half-life in Crl:CD (SD) rat at 1 mg/kg, iv or 3 mg/kg, po measured upto 24 hrs by LC-MS/MS analysis; type: ADME, organism-based; details: in vivo
[2] = Permeability of the compound in human Caco-2 cells assessed as compound recovery at 10 uM measured after 2 hrs by LC/MS/MS analysis; type: ADME, cell-based; details: read-out: Drug recovery
[3] = Lipophilicity, log D of the compound in 1-octanol at pH 7.4 by potentiometric titration method; type: physicochemical
[4] = Metabolic stability in rat liver microsomes assessed as parent compound remaining incubated for 60 mins by HPLC/MS analysis; type: ADME, Microsome; details: read-out: Stabilty
[5] = Metabolic stability in rat plasma assessed as parent compound remaining at 1 uM incubated for 60 mins by HPLC/MS analysis; type: ADME, cell-free; details: read-out: Stabilty
[6] = Drug metabolism in rat liver microsome assessed as reduction of aldehyde group at 10 mM measured after 15 mins in presence of NADPH by LC-MS analysis; type: ADME; details: microsomes, 10000 µM
[7] = Drug metabolism in rat blood assessed as reduction of aldehyde group measured at 1 uM within 1 hr by LC-MS/MS analysis; type: ADME, tissue-based; details: read-out: Drug metabolism
[8] = Metabolic stability in rat liver S9 fraction at 1 uM assessed as parent compound remaining incubated for 60 mins by HPLC/MS analysis; type: ADME, subcellular; details: read-out: Stabilty
[9] = Oral bioavailability in Crl:CD (SD) rat at 3 mg/kg measured upto 24 hrs by LC-MS/MS analysis; type: ADME, organism-based; details: in vivo
[10] = Drug metabolism in rat liver microsomes assessed as glucuronidation by measuring (2S,3S,4S,5R,6R)-6-((8-(5-cyanopyridin-2-ylcarbamoyl)-5,6,7,8-tetrahydro-1,8-naphthyridin-2-yl)methoxy)-3,4,5-trihydroxytetrahydro-2H-pyran-2-carboxylic acid metabolite formation incubated for 60 mins by HPLC/MS analysis; type: ADME, Microsome; details: 1 h
[11] = AUC in Crl:CD (SD) rat at 3 mg/kg, po measured upto 24 hrs by LC-MS/MS analysis; type: ADME, organism-based; design: route oral, dose 3 mg/kg, time <=24; details: in vivo
[12] = Drug metabolism in rat feces assessed as reduction of aldehyde group measured after 20 hrs incubated under anaerobic condition measured by LC-MS analysis; type: ADME, tissue-based
[13] = Metabolic stability in rat liver S9 fraction assessed as parent compound remaining at 1 uM incubated for 60 mins in presence of NADPH by HPLC/MS analysis; type: ADME, subcellular; details: read-out: Stabilty
[14] = Drug metabolism in rat liver microsomes assessed as C-hydroxylation of THN mediated M3 metabolite formation incubated for 60 mins by HPLC/MS analysis; type: ADME, Microsome; details: 1 h
[15] = Drug metabolism in human liver microsome assessed as reduction of aldehyde group at 10 mM measured after 15 mins in presence of NADPH by LC-MS analysis; type: ADME; details: microsomes, 10000 µM
[16] = Drug metabolism in rat liver microsomes assessed as C-hydroxylation of THN mediated M2 metabolite formation incubated for 60 mins by HPLC/MS analysis; type: ADME, Microsome; details: 1 h
[17] = Clearance in Crl:CD (SD) rat at 1 mg/kg, iv or 3 mg/kg, po measured up to 24 hrs by LC-MS/MS analysis; type: ADME, organism-based; details: in vivo
[18] = Volume of distribution at steady state in Crl:CD (SD) rat at 1 mg/kg, iv or 3 mg/kg, po measured upto 24 hrs by LC-MS/MS analysis; type: ADME, organism-based; details: in vivo, read-out: Vdss
[19] = Metabolic stability in rat blood at 1 uM assessed as parent compound remaining incubated for 60 mins by HPLC/MS analysis; type: ADME, tissue-based; details: read-out: Stabilty
[20] = AUC in Crl:CD (SD) rat at 1 mg/kg, iv formulated in PEG200/NMP measured upto 24 hrs by LC-MS/MS analysis; type: ADME, organism-based; design: route intravenous, dose 1 mg/kg, time <=24; details: in vivo
[21] = Oral bioavailability in C57BL/6 mouse at 3 mg/kg measured upto 24 hrs by LC-MS/MS analysis; type: ADME, organism-based; details: in vivo
[22] = Plasma concentration in mouse xenografted with human RH30 cells at 30 mg/kg, po by LC-MS/MS analysis; type: ADME, organism-based; details: in vivo
[23] = Plasma concentration in mouse xenografted with human RH41 cells at 30 mg/kg, po by LC-MS/MS analysis; type: ADME, organism-based; details: in vivo
[24] = Volume of distribution at steady state in C57BL/6 mouse at 1 mg/kg, iv or 3 mg/kg, po measured upto 24 hrs by LC-MS/MS analysis; type: ADME, organism-based; details: in vivo, read-out: Vdss
[25] = Clearance in C57BL/6 mouse at 1 mg/kg, iv or 3 mg/kg, po measured upto 24 hrs by LC-MS/MS analysis; type: ADME, organism-based; details: in vivo
[26] = Half-life in C57BL/6 mouse at 1 mg/kg, iv or 3 mg/kg, po measured upto 24 hrs by LC-MS/MS analysis; type: ADME, organism-based; details: in vivo
[27] = Drug metabolism in human Caco-2 cells assessed as oxidation of aldehyde group at 10 uM incubated from 30 to 120 mins by LC-MS/MS analysis; type: ADME, cell-based; details: caco-2, 10 µM, time 30-120 min
[28] = Drug metabolism in human Caco-2 cells assessed as depletion of parent compound at 10 uM measured after 1 hr by LC-MS/MS analysis; type: ADME, cell-based; details: read-out: Drug degradation
[29] = Drug metabolism in human Caco-2 cells assessed as reduction of aldehyde group at 10 uM incubated from 30 to 120 mins by LC-MS/MS analysis; type: ADME, cell-based; details: caco-2, 10 µM, time 30-120 min
[30] = AUC (0 to 24 hrs) in Crl:CD (SD) rat at 100 mg/kg, po qd treated for 1 day measured by LC-MS/MS analysis; type: ADME, organism-based; design: route oral, time 1 day, dose 100 mg/kg; details: in vivo
[31] = Thermodynamic solubility of compound in phosphate buffer at pH 6.8 measured after 15 mins by shake-flask method based LC-HRMS analysis; type: physicochemical; details: read-out: Therm_solubility
[32] = Volume of distribution at steady state in C57BL/6 mouse at 0.5 mg/kg, iv measured up to 24 hrs by LC-MS/MS analysis; type: ADME, organism-based; details: in vivo, read-out: Vdss
[33] = AUC (0 to 24 hrs) in Crl:CD (SD) rat at 10 mg/kg, po qd treated for 1 day measured by LC-MS/MS analysis; type: ADME, organism-based; design: route oral, dose 10 mg/kg, time 1 day; details: in vivo
[34] = AUC in C57BL/6 mouse at 0.5 mg/kg, iv measured up to 24 hrs by LC-MS/MS analysis; type: ADME, organism-based; design: route intravenous, dose 0.5 mg/kg, time <=24; details: in vivo
[35] = Volume of distribution at steady state in Beagle dog at 0.1 mg/kg, iv or 0.3 mg/kg, po by LC-MS/MS analysis; type: ADME, organism-based, Canis lupus familiaris; details: in vivo, read-out: Vdss
[36] = AUC in Beagle dog at 0.1 mg/kg, iv by LC-MS/MS analysis; type: ADME, organism-based, Canis lupus familiaris; design: dose 0.1 mg/kg; details: in vivo
[37] = Half-life in Beagle dog at 0.1 mg/kg, iv or 0.3 mg/kg, po by LC-MS/MS analysis; type: ADME, organism-based, Canis lupus familiaris; details: in vivo
[38] = Oral bioavailability in Beagle dog at 0.3 mg/kg by LC-MS/MS analysis; type: ADME, organism-based, Canis lupus familiaris; details: in vivo, 0.3 mg/kg
[39] = AUC in Beagle dog at 0.3 mg/kg, po by LC-MS/MS analysis; type: ADME, organism-based, Canis lupus familiaris; design: dose 0.3 mg/kg; details: in vivo
[40] = AUC (0 to 12 hrs) in C57BL/6 mouse at 30 mg/kg, po BID treated for 6 days measured by LC-MS/MS analysis; type: ADME, organism-based; design: route oral, dose 30 mg/kg, time 6 day; details: in vivo
[41] = Half-life in C57BL/6 mouse at 0.5 mg/kg, iv measured up to 24 hrs by LC-MS/MS analysis; type: ADME, organism-based; details: in vivo
[42] = Drug absorption in Sprague-Dawley rat at 10 to 100 mg/kg, po qd for 10 days by LC-MS/MS analysis; type: ADME, organism-based; details: in vivo, 240 h, dose 10-100 mg/kg, time 10 day
[43] = Tmax in Sprague-Dawley rat at 10 to 100 mg/kg, po qd for 10 days by LC-MS/MS analysis; type: ADME, organism-based; details: in vivo, dose 10-100 mg/kg, time 10 day
[44] = AUC (0 to 24 hrs) in Crl:CD (SD) rat at 30 mg/kg, po qd treated for 1 day measured by LC-MS/MS analysis; type: ADME, organism-based; design: route oral, time 1 day, dose 30 mg/kg; details: in vivo
[45] = Clearance in C57BL/6 mouse at 0.5 mg/kg, iv measured up to 24 hrs by LC-MS/MS analysis; type: ADME, organism-based; details: in vivo
[46] = Plasma concentration in mouse xenografted with human Huh7 cells at 30 mg/kg, po BID administered for 14 days measured 12 hrs post-last dose; type: ADME, organism-based; details: time 14 day
[47] = Dose normalized AUC in Crl:CD (SD) rat at 1 mg/kg, iv measured up to 24 hrs by LC-MS/MS analysis; type: ADME, organism-based; details: in vivo
[48] = Dose normalized AUC in Crl:CD (SD) rat at 3 mg/kg, po measured up to 24 hrs by LC-MS/MS analysis; type: ADME, organism-based; details: in vivo

- half-life [1]: 1.3 h
- recovery at 2 h, 10 µM [2]: < 10%
- logD [3]: 2.9
- remaining at 1 h [4]: 7%
- remaining at 1 h, 1 µM [5]: 100%
- Drug metabolism [6]: Metabolite_Detected
- metabolised at 1 h, 1 µM [7]: > 50%
- remaining at 1 h, 1 µM [8]: 61%
- F ([9]; 3 mg/kg, 24 h): 4%
- Drug metabolism [10]: Metabolite_Detected
- AUC [11]: 0.054 µM·h
- Drug metabolism [12]: Metabolite_Detected
- remaining at 1 h, 1 µM [13]: 1%
- Drug metabolism [14]: Metabolite_Detected
- Drug metabolism [15]: Metabolite_Detected
- Drug metabolism [16]: Metabolite_Detected
- clearance [17]: 44 mL/min/kg
- Vd [18]: 3.4 L/kg
- remaining at 1 h, 1 µM [19]: 22%
- AUC [20]: 1.232 µM·h
SMILES: N#Cc1ccc(NC(=O)N2CCCc3ccc(C=O)nc32)nc1

- recovery at 2 h, 10 µM [2]: < 10%
- bioavailability [21]: 22%
- concentration [22]: < 40 nM
- concentration [23]: < 40 nM
- Drug metabolism [6]: Metabolite_Detected
- Vd [24]: 1.6 L/kg
- clearance [25]: 77 mL/min/kg
- Drug metabolism [15]: Metabolite_Detected
- half-life [26]: 0.8 h
SMILES: COCCNc1cc(NC(=O)N2CCCc3cc(CO)c(C=O)nc32)ncc1C#N

- recovery at 2 h, 10 µM [2]: < 10%
- Drug metabolism [6]: Metabolite_Detected
- Drug metabolism [27]: Metabolite_Detected
- Drug metabolism [15]: Metabolite_Detected
- metabolised at 1 h, 10 µM [28]: 80%
- Drug metabolism [29]: Metabolite_Detected
SMILES: N#Cc1cnc(NC(=O)N2CCCc3ccc(C=O)nc32)nc1

- AUC at 24 h [30]: 18700 ng·h/mL
- half-life [1]: 14.2 h
- solubility thermodynamic at […] [31]: < 6 µM
- Vd [32]: 1.4 L/kg
- AUC at 24 h [33]: 2830 ng·h/mL
- AUC at 24 h [34]: 4.54 µM·h
- Vd [35]: 1.1 L/kg
- AUC [36]: 20.082 µM·h
- half-life [37]: 8.1 h
- F [38]: 25%
- bioavailability ([9]; Crl:CD (SD)): 33%
- AUC [39]: 5.05 µM·h
- AUC at 144 h [40]: 8250 ng·h/mL
- half-life [41]: 5.2 h
- Drug absorption [42]: Active
- clearance [17]: 21 mL/min/kg
- Tmax [43]: 2 h
- Vd [18]: 7.2 L/kg
- AUC at 24 h [44]: 5400 ng·h/mL
- clearance [45]: 8 mL/min/kg
- concentration at 336 h [46]: 500 nM
- AUC/dose [47]: 1768 nM·h
- AUC/dose [48]: 587 nM·h
SMILES: CC(C)Oc1cc(NC(=O)N2CCCc3cc(CN4CCCC4=O)c(C=O)nc32)ncc1C#N
